# How the values were obtained:
# Assay in all cases: Spot-on-lawn inhibition assay
# Format in all cases: cell-based
# [1] = system: Staphylococcus haemolyticus strains; set-up: key to Mutants observed after 24 h (mark *): *Mutants observed after 24 h; key to Average inhibition score: –: “−” = No inhibition; “+” = Unclear zone; “++” = zone < 1 cm; “+++” = zone ≥ 1 cm; conditions: for Mutants observed after 24 h (mark *): spot of 5 μl at 1 mg/ml
# Experimental: (§1) A semi-quantitative spot-on-lawn inhibitory assay was performed on 51 bacterial indicator strains (Table S1) to determine the bacteriocins inhibition spectra. Overnight cultures were diluted 1:100 in BHI soft agar and distributed on BHI agar plates. Once solidified, bacteriocins with various concentrations were applied on designated spots. The plates were incubated at appropriate temperature O/N and inhibition zones were measured the following day. To determine minimal inhibitory concentration (MIC50) of H1 against clinical S. haemolyticus isolates (Table S2), as well as strains heterologously expressing RseP (Table S4), the microtiterplate antimicrobial assay was performed as previously described[41],[79]. MIC50 was defined as the minimal bacteriocin concentration needs to inhibit the growth of a bacterial strain by at least 50%.
# [2] = system: S. aureus; set-up: key: –: “−” = No inhibition; “+” = Unclear zone; “++” = zone < 1 cm; “+++” = zone ≥ 1 cm; conditions: 5 µl at 1 mg/ml, n=3
# Experimental: as §1
# [3] = system: S. epidermidis; set-up: key: –: “−” = No inhibition; “+” = Unclear zone; “++” = zone < 1 cm; “+++” = zone ≥ 1 cm; conditions: S. epidermidis LMG 3522; 5 µl at 1 mg/ml; n=3
# Experimental: as §1
# [4] = system: Staphylococcus arlettae; set-up: key: –: “−” = No inhibition; “+” = Unclear zone; “++” = zone < 1 cm; “+++” = zone ≥ 1 cm; conditions: Staphylococcus arlettae LMG 4134; 5 µl at 1 mg/ml; n=3
# Experimental: as §1
# [5] = system: L. monocytogenes; conditions: L. monocytogenes EDGe; 5 µl at 1 mg/ml; n=3
# Experimental: as §1
# [6] = system: Bacillus cereus; set-up: key: “-“ = No inhibition; “+” = Unclear zone; “++” = zone < 1 cm; “+++”= zone > 1 cm; conditions: 5 µl at 1 mg/ml, n=3
# Experimental: as §1
# [7] = system: C. piscicola; set-up: key: “-“ = No inhibition; “+” = Unclear zone; “++” = zone < 1 cm; “+++”= zone > 1 cm; conditions: C. piscicola LMG 2332; 5 µl at 1 mg/ml; n=3
# Experimental: as §1
# [8] = system: L. innocua; set-up: key: “-“ = No inhibition; “+” = Unclear zone; “++” = zone < 1 cm; “+++”= zone > 1 cm; conditions: 5 µl at 1 mg/ml, n=3
# Experimental: as §1
# [9] = system: L. monocytogenes; set-up: key: “-“ = No inhibition; “+” = Unclear zone; “++” = zone < 1 cm; “+++”= zone > 1 cm; conditions: 5 µl at 1 mg/ml, n=3
# Experimental: as §1
sequence,measurement,setting,value
"MLAKIKAMIKKFPNPYTLAAKLTTYEINWYKQQYGRYPWERPVA [EJ97, enterocin EJ97]",Average inhibition score,"[1]; S. haemolyticus 4068, 5 μl at 1 mg/ml, n = 3",++ (“++” = zone < 1 cm)
same,Mutants observed after 24 h (mark *),[1]; S. haemolyticus 4068,*
same,Average inhibition score,"[1]; S. haemolyticus 4069, 5 μl at 1 mg/ml, n = 3",++ (“++” = zone < 1 cm)
same,Mutants observed after 24 h (mark *),[1]; S. haemolyticus 4069,*
same,Average inhibition score,"[1]; S. haemolyticus 4070, 5 μl at 1 mg/ml, n = 3",++ (“++” = zone < 1 cm)
same,Mutants observed after 24 h (mark *),[1]; S. haemolyticus 4070,*
same,Average inhibition score,"[1]; S. haemolyticus 4071, 5 μl at 1 mg/ml, n = 3",++ (“++” = zone < 1 cm)
same,Mutants observed after 24 h (mark *),[1]; S. haemolyticus 4071,*
same,Average inhibition score,"[1]; S. haemolyticus 4072, 5 μl at 1 mg/ml, n = 3",++ (“++” = zone < 1 cm)
same,Mutants observed after 24 h (mark *),[1]; S. haemolyticus 4072,*
same,Average inhibition score,"[1]; S. haemolyticus 4073, 5 μl at 1 mg/ml, n = 3",++ (“++” = zone < 1 cm)
same,Mutants observed after 24 h (mark *),[1]; S. haemolyticus 4073,*
same,Average inhibition score,"[1]; S. haemolyticus 7067_4_21, 5 μl at 1 mg/ml, n = 3",++ (“++” = zone < 1 cm)
same,Mutants observed after 24 h (mark *),[1]; S. haemolyticus 7067_4_21,*
same,Average inhibition score,"[1]; S. haemolyticus 7067_4_28, 5 μl at 1 mg/ml, n = 3",+++ (“+++” = zone ≥ 1 cm)
same,Mutants observed after 24 h (mark *),[1]; S. haemolyticus 7067_4_28,*
same,Average inhibition score,"[1]; S. haemolyticus 7067_4_39, 5 μl at 1 mg/ml, n = 3",+
same,Average inhibition score,"[1]; S. haemolyticus 7067_4_48, 5 μl at 1 mg/ml, n = 3",+
same,Average inhibition score,"[1]; S. haemolyticus 7067_4_49, 5 μl at 1 mg/ml, n = 3",++ (“++” = zone < 1 cm)
same,Mutants observed after 24 h (mark *),[1]; S. haemolyticus 7067_4_49,*
same,Average inhibition score,"[1]; S. haemolyticus 7067_4_56, 5 μl at 1 mg/ml, n = 3",++ (“++” = zone < 1 cm)
same,Mutants observed after 24 h (mark *),[1]; S. haemolyticus 7067_4_56,*
same,Average inhibition score,"[1]; S. haemolyticus 7067_4_60, 5 μl at 1 mg/ml, n = 3",+++ (“+++” = zone ≥ 1 cm)
same,Mutants observed after 24 h (mark *),[1]; S. haemolyticus 7067_4_60,*
same,Average inhibition score,"[1]; S. haemolyticus 7067_4_66, 5 μl at 1 mg/ml, n = 3",++ (“++” = zone < 1 cm)
same,Mutants observed after 24 h (mark *),[1]; S. haemolyticus 7067_4_66,*
same,Average inhibition score,"[1]; S. haemolyticus 7067_4_67, 5 μl at 1 mg/ml, n = 3",++ (“++” = zone < 1 cm)
same,Mutants observed after 24 h (mark *),[1]; S. haemolyticus 7067_4_67,*
same,Average inhibition score,"[1]; S. haemolyticus 7067_4_71, 5 μl at 1 mg/ml, n = 3",+++ (“+++” = zone ≥ 1 cm)
same,Mutants observed after 24 h (mark *),[1]; S. haemolyticus 7067_4_71,*
same,Average inhibition score,"[1]; S. haemolyticus 7067_4_84, 5 μl at 1 mg/ml, n = 3",++ (“++” = zone < 1 cm)
same,Mutants observed after 24 h (mark *),[1]; S. haemolyticus 7067_4_84,*
same,Average inhibition score,"[1]; S. haemolyticus 7068_7_63, 5 μl at 1 mg/ml, n = 3",++ (“++” = zone < 1 cm)
same,Mutants observed after 24 h (mark *),[1]; S. haemolyticus 7068_7_63,*
same,Average inhibition score,"[1]; S. haemolyticus LMG 4133, 5 µl at 1 mg/ml, n=3",++ (“++” = zone < 1 cm)
same,Average inhibition score,"[1]; S. haemolyticus SH01, 5 μl at 1 mg/ml, n = 3",+++ (“+++” = zone ≥ 1 cm)
same,Mutants observed after 24 h (mark *),[1]; S. haemolyticus SH01,*
same,Average inhibition score,"[1]; S. haemolyticus SH04, 5 μl at 1 mg/ml, n = 3",+++ (“+++” = zone ≥ 1 cm)
same,Mutants observed after 24 h (mark *),[1]; S. haemolyticus SH04,*
same,Average inhibition score,"[1]; S. haemolyticus SH09, 5 μl at 1 mg/ml, n = 3",+
same,Average inhibition score,"[1]; S. haemolyticus SH10, 5 μl at 1 mg/ml, n = 3",+++ (“+++” = zone ≥ 1 cm)
same,Mutants observed after 24 h (mark *),[1]; S. haemolyticus SH10,*
same,Average inhibition score,"[1]; S. haemolyticus SH14, 5 μl at 1 mg/ml, n = 3",++ (“++” = zone < 1 cm)
same,Mutants observed after 24 h (mark *),[1]; S. haemolyticus SH14,*
same,Average inhibition score,"[1]; S. haemolyticus SH20, 5 μl at 1 mg/ml, n = 3",++ (“++” = zone < 1 cm)
same,Mutants observed after 24 h (mark *),[1]; S. haemolyticus SH20,*
same,Average inhibition score,"[1]; S. haemolyticus SH46, 5 μl at 1 mg/ml, n = 3",++ (“++” = zone < 1 cm)
same,Mutants observed after 24 h (mark *),[1]; S. haemolyticus SH46,*
same,Average inhibition score,"[1]; S. haemolyticus SH47, 5 μl at 1 mg/ml, n = 3",+++ (“+++” = zone ≥ 1 cm)
same,Mutants observed after 24 h (mark *),[1]; S. haemolyticus SH47,*
same,Inhibition zones at three concentrations,"[1]; six S. haemolyticus strains 4068–4073, 0.04, 0.2 and 1.0 mg/ml, 5 µl spotted",some inhibition was seen only at the highest concentration
same,Average inhibition score,[2]; S. aureus LMG 3263,+
same,Average inhibition score,[2]; S. aureus LMG 3326,+
same,Average inhibition score,[3],+
same,Average inhibition score,[4],+
same,Average inhibition score,[5],+++ (“+++”= zone > 1 cm)
same,Average inhibition score,[6]; B. cereus LMG 2711,-
same,Average inhibition score,[6]; B. cereus LMG 2731,-
same,Average inhibition score,[6]; Bacillus cereus LMG 2805,-
same,Average inhibition score,[7],-
same,Average inhibition score,[8]; L. innocua LMG 2710,+++ (“+++”= zone > 1 cm)
same,Average inhibition score,[8]; L. innocua LMG 2785,-
same,Average inhibition score,[9]; L. monocytogenes 223,-
same,Average inhibition score,[9]; L. monocytogenes 279,-
same,Average inhibition score,[9]; L. monocytogenes 400,-
same,Average inhibition score,[9]; L. monocytogenes 403,-

# Source: PMC8260761, “A bacteriocin-based treatment option for Staphylococcus haemolyticus biofilms” (Scientific Reports, 2021)
